Laboratory results published in ChEMBL document CHEMBL5360552, “Potential RNA-dependent RNA polymerase (RdRp) inhibitors as prospective drug candidates for SARS-CoV-2” (Eur J Med Chem, 2023).

Columns and labels:
[1] = Cytotoxicity against HEK293T cells assessed as cell growth inhibition incubated for 24 hrs by CCK-8 assay; format: toxicity, cell-based, HEK-293T; conditions: human
[2] = Therapeutic index, ratio of CC50 for HEK293T cells to EC50 for inhibition of SARS-CoV-2 RdRp; format: toxicity; conditions: human, read-out: TI
[3] = biological target: Replicase polyprotein 1ab (Severe acute respiratory syndrome coronavirus 2) (UniProt P0DTD1); assay: Inhibition of SARS-CoV-2 RdRp transfected in HEK293T cells at 10 microM incubated for 24 hrs by Gluc-Activity assay relative to control; format: cell-based
[4] = Cytotoxicity against african green monkey Vero E6 cells assessed as inhibition of cell growth by CCK-8 assay; format: toxicity, cell-based, Vero C1008; conditions: chlorocebus sabaeus
[5] = Selectivity index, ratio of CC50 for african green monkey Vero E6 cells to EC50 for SARS-CoV-2 infected in African Green monkey Vero E6 cells; format: toxicity, cell-based, Vero C1008; conditions: read-out: Selectivity Index
SARS-CoV-2 [6] = assay: Antiviral activity against SARS-CoV-2 infected in african green monkey Vero E6 cells assessed as reduction in viral replication; format: functional, organism-based; conditions: Severe acute respiratory syndrome coronavirus 2, Vero C1008
SARS-CoV-2 [7] = assay: Antiviral activity against SARS-CoV-2 infected in human Calu-3 cells assessed as reduction in viral yield incubated for 48 hrs by RT-PCR; format: functional, organism-based; conditions: Severe acute respiratory syndrome coronavirus 2, Calu-3, 48 h
[8] = Cytotoxicity against human Calu-3 cells assessed as cell growth inhibition incubated for 4 hrs by XTT assay; format: toxicity, cell-based
in vitro = conditions: human, Calu-3 cells
Description: Selectivity index, ratio of CC50 for human Calu-3 cells to EC50 for SARS-CoV-2 infected in human Calu-3

[9] = Cytotoxicity against human Caco-2 cells assessed as cell growth inhibition by neutral red cytopathic assay; format: toxicity, cell-based
SARS-CoV-2 [10] = assay: Antiviral activity against SARS-CoV-2 WA1/2020 infected in human Calu-3 cells preincubated for 2 hrs followed by viral infection and measured after 48 hrs by microscopy analysis; format: functional, organism-based; conditions: Severe acute respiratory syndrome coronavirus 2, WA1/2020, Calu-3
[11] = Cytotoxicity against african green monkey Vero 76 cells assessed as cell growth inhibition by neutral red cytopathic assay; format: toxicity, cell-based; conditions: chlorocebus sabaeus
[12] = Selectivity index, ratio of CC50 for human Caco-2 cells to EC90 for SARS-CoV-2 infected in human Caco-2 cells; format: toxicity, cell-based; conditions: read-out: Selectivity Index
[13] = Selectivity index, ratio of CC50 for african green monkey Vero 76 cells to EC90 for SARS-CoV-2 infected in African Green monkey Vero 76 cells assessed as reduction in cytopathic effect; format: toxicity, cell-based; conditions: read-out: Selectivity Index
[14] = Selectivity index, ratio of CC50 for human Calu-3 cells to EC90 for SARS-CoV-2 infected in human Calu-3 cells; format: toxicity, cell-based; conditions: read-out: Selectivity Index
[15] = Selectivity index, ratio of CC50 for african green monkey Vero 76 cells to EC90 for SARS-CoV-2 infected in African Green monkey Vero 76 cells; format: toxicity, cell-based; conditions: read-out: Selectivity Index
[16] = Cytotoxicity against human Calu-3 cells assessed as cell growth inhibition by neutral red cytopathic assay; format: toxicity, cell-based
SARS-CoV-2 [17] = assay: Antiviral activity against SARS-CoV-2 WA1/2020 infected in african green monkey Vero 76 cells preincubated for 24 hrs followed by viral infection and measured after 3 day post infection by viral yield reduction assay; format: functional; conditions: Severe acute respiratory syndrome coronavirus 2, WA1/2020, Vero 76, 96 h; time 4 day
SARS-CoV-2 [18] = assay: Antiviral activity against SARS-CoV-2 WA1/2020 infected in human Caco-2 cells preincubated for 24 hrs followed by viral infection and measured after 3 day post infection by viral yield reduction assay; format: functional; conditions: Severe acute respiratory syndrome coronavirus 2, WA1/2020, Caco-2, 96 h; time 4 day
SARS-CoV-2 [19] = assay: Antiviral activity against SARS-CoV-2 WA1/2020 infected in african green monkey Vero E6 cells preincubated for 24 hrs followed by viral infection and measured after 5 day post infection by cytopathic effect assay; format: functional; conditions: Severe acute respiratory syndrome coronavirus 2, WA1/2020, Vero C1008, 144 h; time 6 day
SARS-CoV-2 [20] = assay: Antiviral activity against SARS-CoV-2 infected in african green monkey Vero E6 cells assessed as reduction in viral yield at 20 uM incubated for 48 hrs post infection by qRT-PCR relative to control; format: functional, Severe acute respiratory syndrome coronavirus 2; design: scale not given: the % may be the effect or the level left
[21] = Cytotoxicity against african green monkey Vero E6 cells assessed as inhibition of cell growth incubated for 4 days by MTS assay; format: toxicity, cell-based, Vero C1008; conditions: chlorocebus sabaeus, time 4 day
SARS-CoV-2 [22] = assay: Antiviral activity against SARS-CoV-2 infected in african green monkey Vero E6 cells pretreated for 1 hrs followed by viral infection for 2 days post treatment by qRT-PCR; format: functional, organism-based, Severe acute respiratory syndrome coronavirus 2
SARS-CoV-2 [23] = assay: Antiviral activity against SARS-CoV-2 infected in human Calu-3 cells pretreated for 1 hrs followed by viral infection for 2 days post treatment by qRT-PCR; format: functional, organism-based; conditions: Severe acute respiratory syndrome coronavirus 2, Calu-3
[24] = Cytotoxicity against human Calu-3 cells assessed as inhibition of cell growth incubated for 4 days by MTS assay; format: toxicity, cell-based; conditions: time 4 day
SARS-CoV-2 [25] = assay: Antiviral activity against wild type SARS-CoV-2 infected in human Calu-3 cells of organoid assessed as intracellular viral RNA level measured after 48 hrs by qRT-PCR analysis; format: functional, organism-based; conditions: Severe acute respiratory syndrome coronavirus 2, Calu-3, 48 h

Structure (SMILES): CC(C)(C)OC(=O)N1CCN(c2ccc3cccc(OCC(=O)NCc4ccccc4)c3n2)CC1
- CC50 at 24 h [1]: 70.8 µM
- selectivity ratio [2]: 65.5
- inhibition [3]: 95%

Structure (SMILES): NC(=O)c1nc(F)c[nH]c1=O
- CC50 [4]: > 400 µM
- selectivity ratio [5]: 6.46

Structure (SMILES): COc1ccc(-c2cc(=O)c3c(O)cc(O)c(-c4cc(-c5cc(=O)c6c(O)cc(O)cc6o5)ccc4OC)c3o2)cc1 [ISOGINKGETIN]
- IC50 (SARS-CoV-2 [6]): 22.8 µM

Structure (SMILES): CCN(CC)CCCC(C)Nc1ccnc2cc(Cl)ccc12 (stereo not given) [CHLOROQUINE]
- IC50 (SARS-CoV-2 [6]): 11.6 µM

Structure (SMILES): CC(C)(C)OC(=O)N[C@@H]1CCN(c2ccc3cccc(OCC(=O)NCc4ccccc4)c3n2)C1
- CC50 at 24 h [1]: 79.4 µM
- selectivity ratio [2]: 20.3
- inhibition [3]: 74.9%

Structure (SMILES): COC(=O)N[C@H](C(=O)N1CCC[C@H]1c1ncc(-c2ccc(-c3ccc(-c4cnc([C@@H]5CCCN5C(=O)[C@@H](NC(=O)OC)C(C)C)[nH]4)cc3)cc2)[nH]1)C(C)C
- EC50 (SARS-CoV-2 [7]): 1.1 µM
- CC50 at 4 h [8]: 38 µM

Structure (SMILES): CC(C)OC(=O)[C@H](C)N[P@](=O)(OC[C@H]1O[C@@H](n2ccc(=O)[nH]c2=O)[C@](C)(F)[C@@H]1O)Oc1ccccc1 [SOFOSBUVIR]
- EC50 (SARS-CoV-2 [7]): 7.3 µM
- CC50 at 4 h [8]: 512 µM

Structure (SMILES): NC(=O)c1ncn([C@@H]2O[C@H](CO)[C@@H](O)[C@H]2O)n1 [RIBAVIRIN]
- selectivity ratio (in vitro): 16
- EC50 (SARS-CoV-2 [7]): 7.1 µM
- CC50 at 4 h [8]: 160 µM

Structure (SMILES): Cc1cccc(C)c1OCC(=O)N[C@@H](Cc1ccccc1)[C@@H](O)C[C@H](Cc1ccccc1)NC(=O)[C@H](C(C)C)N1CCCNC1=O [LOPINAVIR]
- IC50 (SARS-CoV-2 [6]): 11.5 µM

Structure (SMILES): Nc1ncnc2c([C@@H]3N[C@H](CO)[C@@H](O)[C@H]3O)c[nH]c12
- CC50 [9]: 82.8 µM
- EC50 (SARS-CoV-2 [10]): 14.2 µM
- CC50 [11]: > 296 µM
- selectivity ratio [12]: 5.8
- selectivity ratio [13]: 5.8
- selectivity ratio [14]: > 3.5
- selectivity ratio [15]: > 27
- CC50 [16]: > 50 µM
- EC90 (SARS-CoV-2 [17]): 10.9 µM
- EC90 (SARS-CoV-2 [18]): 14.2 µM
- EC90 (SARS-CoV-2 [19]): 50.3 µM

Structure (SMILES): O=c1cc(-c2ccccc2)oc2cc(O)c(O)c(O)c12 [BAICALEIN]
- Activity (SARS-CoV-2 [20]): 99.8%
- CC50 at 96 h [21]: 8.6 µM
- EC90 (SARS-CoV-2 [22]; Severe acute respiratory syndrome coronavirus 2, Vero C1008, 48 h, time 2 day): 7.6 µM
- EC50 (SARS-CoV-2 [23]): 1.2 µM
- CC50 at 96 h [24]: 91 µM

Structure (SMILES): CCC(CC)COC(=O)[C@H](C)N[P@](=O)(OC[C@H]1O[C@@](C#N)(c2ccc3c(N)ncnn23)[C@H](O)[C@@H]1O)Oc1ccccc1
- CC50 [4]: > 100 µM
- IC50 (SARS-CoV-2 [6]): 7.18 µM

Structure (SMILES): O=C(O)[C@H]1O[C@@H](Oc2cc3oc(-c4ccccc4)cc(=O)c3c(O)c2O)[C@H](O)[C@@H](O)[C@@H]1O [BAICALIN]
- Activity (SARS-CoV-2 [20]): 98%
- CC50 at 96 h [21]: > 100 µM
- EC50 (SARS-CoV-2 [22]; Severe acute respiratory syndrome coronavirus 2, Vero C1008): 9 µM
- EC50 (SARS-CoV-2 [23]): 8 µM
- CC50 at 96 h [24]: > 100 µM

Structure (SMILES): CC(C)(C)OC(=O)N[C@H]1CCN(c2ccc3cccc(OCC(=O)NCc4ccccc4)c3n2)C1
- CC50 at 24 h [1]: 72.4 µM
- selectivity ratio [2]: 34.8
- inhibition [3]: 92.8%

Structure (SMILES): CC(C)C(=O)OC[C@H]1O[C@@H](n2cc/c(=N\O)[nH]c2=O)[C@H](O)[C@@H]1O [MOLNUPIRAVIR]
- IC50 (SARS-CoV-2 [25]): 1.97 µM
